Results reported in the supplement of paper PMC10307832.

Experiments:
Experiment in all cases: relative viability (nuclei count vs DMSO), 5 days (fraction); higher = more cells survive
[1] = compound: OCc1c[nH]c2ccccc12 [Indole-3-carbinol] + Cc1cc(Nc2cc(N3CCN(C)CC3)nc(Sc3ccc(NC(=O)C4CC4)cc3)n2)n[nH]1 [Tozasertib] (partner 0.1 µM)
Procedure, shortened: (§1)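 Relative viability is defined as nuclei in treated wells over nuclei in vehicle wells. Duplicate plates were run and medians reported. Lung cancer cell lines in 1536-well plates were dosed by pin tool one day after seeding, with one drug or with a fixed anchor-drug dose plus five library-drug doses (not always all listed) in √10 steps, and nuclei were counted after 5 days.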

[2] = compound: OCc1c[nH]c2ccccc12 [Indole-3-carbinol] + O=C(CCCCCCC(=O)Nc1ccccc1)NO [Vorinostat] (partner 1 µM)
Procedure, shortened: as §1

[3] = compound: OCc1c[nH]c2ccccc12 [Indole-3-carbinol] + Cc1nc(Nc2ncc(C(=O)Nc3c(C)cccc3Cl)s2)cc(N2CCN(CCO)CC2)n1 [Dasatinib] (partner 0.075 µM)
Procedure, shortened: as §1

[4] = compound: OCc1c[nH]c2ccccc12 [Indole-3-carbinol] + C[C@]1(O)C[C@@H](c2nc(-c3ccc4ccc(-c5ccccc5)nc4c3)c3c(N)nccn32)C1 [Linsitinib] (partner 1 µM)
Procedure, shortened: as §1

[5] = compound: OCc1c[nH]c2ccccc12 [Indole-3-carbinol] + O=C(c1cc(Cc2n[nH]c(=O)c3ccccc23)ccc1F)N1CCN(C(=O)C2CC2)CC1 [Olaparib] (partner 8 µM)
Procedure, shortened: as §1

| Cell Line | relative viability ([1]; first compound 0.253 µM) | relative viability ([1]; first compound 0.8 µM) | relative viability ([1]; first compound 2.53 µM) | relative viability ([1]; first compound 8 µM) | relative viability ([2]; first compound 0.253 µM) | relative viability ([2]; first compound 0.8 µM) | relative viability ([2]; first compound 2.53 µM) | relative viability ([2]; first compound 8 µM) | relative viability ([3]; first compound 0.253 µM) | relative viability ([3]; first compound 0.8 µM) | relative viability ([3]; first compound 2.53 µM) | relative viability ([3]; first compound 8 µM) | relative viability ([4]; first compound 0.253 µM) | relative viability ([4]; first compound 0.8 µM) | relative viability ([4]; first compound 2.53 µM) | relative viability ([4]; first compound 8 µM) | relative viability ([5]; first compound 0.253 µM) | relative viability ([5]; first compound 0.8 µM) | relative viability ([5]; first compound 2.53 µM) | relative viability ([5]; first compound 8 µM) |
| --- | --- | --- | --- | --- | --- | --- | --- | --- | --- | --- | --- | --- | --- | --- | --- | --- | --- | --- | --- | --- |
| 201T | 0.958 | 0.978 | 1.02 | 0.969 | 1.1 | 0.88 | 0.978 | 0.927 | 0.556 | 0.635 | 0.566 | 0.554 | 1.03 | 0.975 | 1.1 | 1.05 | 0.849 | 0.856 | 0.843 | 0.848 |
| A549 |  |  |  |  |  |  |  |  |  |  |  |  | 0.656 | 0.578 | 0.697 | 0.545 | 0.458 | 0.413 | 0.356 | 0.322 |
| A-427 | 0.193 | 0.226 | 0.226 | 0.224 | 0.836 | 0.818 | 0.86 | 0.825 | 0.676 | 0.768 | 0.742 | 0.564 | 1.1 | 1.06 | 1.09 | 1.08 | 0.661 | 0.714 | 0.788 | 0.728 |
| ABC-1 | 0.186 | 0.214 | 0.164 | 0.158 | 1.59 | 1.05 | 1.23 | 1.1 | 0.47 | 0.596 | 0.456 | 0.591 | 0.931 | 1.04 | 0.82 | 0.706 | 0.855 | 0.97 | 0.87 | 0.761 |
| BEN | 0.463 |  | 0.479 | 0.554 | 0.512 | 0.512 | 0.63 | 0.631 | 0.334 | 0.351 | 0.318 | 0.294 | 0.863 | 0.827 | 0.84 | 0.847 | 1.09 | 1.05 | 1.12 | 1.06 |
| CAL-12T | 0.291 | 0.351 | 0.335 | 0.278 | 0.844 | 0.808 | 0.908 | 0.741 | 0.385 | 0.53 | 0.536 | 0.366 | 0.835 | 0.846 | 0.832 | 0.71 | 0.672 | 0.834 | 0.717 | 0.66 |
| COR-L23 | 0.201 | 0.243 | 0.296 | 0.185 | 0.445 | 0.492 | 0.459 | 0.371 | 0.505 | 0.571 | 0.586 | 0.542 | 0.962 | 0.862 | 0.993 | 0.786 | 0.37 | 0.411 | 0.372 | 0.31 |
| COR-L 105 | 0.366 | 0.385 | 0.378 | 0.347 | 0.916 | 0.847 | 0.73 | 0.862 | 0.368 | 0.337 | 0.396 | 0.301 | 0.693 | 0.767 | 0.99 | 0.65 | 0.642 | 0.655 | 0.713 | 0.685 |
| ChaGo-K-1 | 0.218 | 0.219 | 0.231 | 0.211 | 0.792 | 0.729 | 0.76 | 0.73 | 0.583 | 0.568 | 0.709 | 0.604 |  |  |  |  | 0.427 | 0.45 | 0.415 | 0.387 |
| EKVX | 0.423 | 0.428 | 0.421 | 0.383 | 0.745 | 0.631 | 0.942 | 0.697 | 0.564 | 0.54 | 0.535 | 0.67 | 1.03 | 1.03 | 0.973 | 0.976 | 0.797 | 0.938 | 0.851 | 0.85 |
| EMC-BAC-2 | 0.267 | 0.309 | 0.25 | 0.259 | 0.423 | 0.444 | 0.421 | 0.447 | 0.329 | 0.307 | 0.337 | 0.312 | 0.827 | 0.823 | 0.806 | 0.771 | 0.493 | 0.51 | 0.504 | 0.467 |
| EPLC-272H | 0.33 | 0.267 | 0.369 | 0.396 | 0.265 | 0.534 | 0.409 | 0.523 | 0.44 | 0.406 | 0.403 | 0.387 | 1.38 | 1.28 | 1.24 | 1.11 | 0.894 | 0.993 | 0.627 | 0.914 |
| H3255 | 0.691 | 0.599 | 0.635 | 0.58 | 0.753 | 0.811 | 0.955 | 0.778 | 0.346 | 0.456 | 0.338 | 0.321 | 0.916 | 0.983 | 0.928 | 0.897 | 0.589 | 0.553 | 0.617 | 0.552 |
| HARA | 0.119 | 0.125 | 0.12 | 0.179 | 0.515 | 0.627 | 0.505 | 0.511 | 0.289 | 0.296 | 0.323 | 0.198 | 0.92 | 0.979 | 1.06 | 0.978 | 0.568 | 0.77 | 0.331 | 0.701 |
| HCC-15 | 0.348 | 0.52 | 0.495 | 0.398 | 0.909 | 0.929 | 0.963 | 0.789 | 0.615 | 0.745 | 0.611 | 0.607 | 0.845 | 1.02 | 0.824 | 0.843 | 0.722 | 0.747 | 0.684 | 0.685 |
| HCC-44 | 0.97 | 0.575 | 1.11 | 0.922 | 1.15 | 1.16 | 1.12 | 1.03 |  |  |  |  | 0.74 | 0.705 | 0.614 | 0.625 | 1 | 1.02 | 0.966 | 0.962 |
| HCC-78 | 0.301 | 0.454 | 0.569 | 0.415 | 0.508 | 0.533 | 0.443 | 0.452 | 0.335 | 0.436 | 0.392 | 0.535 | 0.534 | 0.449 | 0.547 | 0.538 | 0.958 | 0.758 | 0.798 | 0.819 |
